Where two headings read alike, the source gives them in different places.

From US20260258035A1, “FIVE-MEMBERED AND SIX-MEMBERED NITROGEN-CONTAINING COMPOUND, AND INTERMEDIATE, PREPARATION METHOD AND USE THEREOF” (HANGZHOU SYNRX THERAPEUTICS BIOMEDICAL TECHNOLOGY CO., LTD., priority 2022, published 2026) come the findings set out here.

In data set [1] the target is T1, PXR (Homo sapiens, UniProt O75469).
T1 construct: host or cells: DPX2 (HepG2)
T1 sequence (O75469 1-434): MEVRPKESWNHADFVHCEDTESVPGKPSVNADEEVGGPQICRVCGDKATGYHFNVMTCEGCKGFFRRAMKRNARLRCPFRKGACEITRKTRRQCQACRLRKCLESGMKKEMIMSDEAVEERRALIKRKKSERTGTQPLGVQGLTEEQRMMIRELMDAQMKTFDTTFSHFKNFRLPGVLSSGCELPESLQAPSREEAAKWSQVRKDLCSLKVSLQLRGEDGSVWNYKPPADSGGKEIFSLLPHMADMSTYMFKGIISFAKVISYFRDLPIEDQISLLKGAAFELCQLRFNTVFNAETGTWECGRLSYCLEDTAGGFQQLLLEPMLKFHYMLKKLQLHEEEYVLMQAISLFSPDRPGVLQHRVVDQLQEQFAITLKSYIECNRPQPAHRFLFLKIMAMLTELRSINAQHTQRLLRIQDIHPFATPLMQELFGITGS
Description: PXR assay (DPX2 luciferase reporter cells). Type of data set: cell-based. The conditions noted are these: 24 h; for PXR Activation @30 uM (% Ctrl): positive control rifampicin. The method, then:
1) Information of Cell Line
DPX2 (HepG2 cells stably transfected with PXR and luciferase reporter) cells were purchased from Puracyp Inc (Carlsbad, CA).
2) Experimental Procedures a) Reagents and Consumables
The DPX2 cells were cultured in the growth medium containing 1000 fetal bovine serum. The DPX2 cells in a T-75 flask were cultured in the […] incubator at 37° C. with 950% relative humidity, and digested when the cells grew to cover 80-90% of the bottom of the flask.
The surface layer of the T-75 cultured cells was washed with 10 mL of PBS; PBS was pipetted; 3-5 mL of tryp sin was added; the cells were digested at 37° C. for 5 minutes or until the cells were digested to be suspended; and excessive medium containing fetal bovine serum was added to stop trypsinization. The cell suspension was transferred to a conical-bottomed centrifuge tube and centrifuged at 150 g rpm for 5 minutes at room temperature; the supernatant was carefully pipetted; and the cells were resuspended with the treatment medium, with the concentration adjusted to 3.2×10^5 cells/mL (incubation time: 24 hours, plate seeding density: […]). 25 μL of the cell suspension was added to each well of the 384-well cell culture plate.
The cell culture plate was placed and cultured for 24 h in the […] incubator with 9500 humidity at 37° C. c) Formulation of Compound
The stock solution of each of 1000× test compound, the positive control (rifampicin), and the negative control (propranolol) was prepared with DMSO. The final concentrations of the positive control (rifampicin) were 1 μM and 10 μM, and the final concentration of the negative control (propranolol) was 10 μM. The final concentrations of the test compound were 10 μM, 1 μM, 0.1 μM, or EC50 (30 μM, 10 μM, 3 μM, 1 μM, 0.3 μM, 0.1 μM). The final concentration of DMSO was 0.10. The cell culture plate was taken out from the incubator, and 25 nL of the stock solution of the positive control, negative control or test compound was directly added with Echo, each with three parallel concentrations. The cell culture plate was placed in the incubator and continued to be incubated for 24 h. Before starting the assay with the substrate, the cell morphology and the monolayer integrity were checked to ensure that the monolayer was of acceptable research quality. […]
d) Quantitative Detection with PXR Activation
After 24 hours of dosing, the culture could be quantitatively detected with PXR activation. The CellTiter-Fluor™ Cell Viability Assay Kit and One-Glo Luciferase reagent were equilibrated to room temperature. The GF-AFC substrate (10 μL) was added to the assay buffer (10 ml) to develop a 2× reagent, which was then diluted into a 1× reagent with 10 ml of PBS. The ONE-Glo Luciferase substrate was added to the ONE-Glo Luciferase assay buffer. The culture plate was taken out from the incubator; the medium was discarded; 1× of CellTiter-Fluor™ reagent was poured into the loading slot; 25 μL of reagent were added per well to the culture plate with a pipetting workstation; and the culture plate was then incubated in the incubator for 30 minutes. The cell culture plate was taken out from the incubator, and cooled slightly to room temperature; and the fluorescence value was determined with a fully automatic quantitative microplate reader, with the excitation light of 400 nm and the emission light of 505 nm. The ONE-Glo reagent was poured into the loading slot, with 25 μL per well, and the resulting mixture was gently mixed in the plate, and incubated at room temperature for 5 minutes to determine the luminescence value.

Data set [2] in a line: Mouse PK assay. The conditions noted are these: CD1 mice, oral administration, 30 mg/kg, plasma; for bioavailability / half-life / MRT: mouse; for half-life: read-out: Half-life period (converted); for MRT: read-out: Mean residence time. Type of data set: in vivo. The method, then:
The goal of this assay was to study the pharmacokinetics of the test compound on CD1 mice (6-8 weeks old, Zhejiang Vegavit Bio-technology Co., Ltd.) after oral administration. The specific experimental procedures were as follows: • 1) the compound was dissolved in 8% DMSO+72% PEG 400+20% ([…]); and • 2) blood samples were collected, with 0.03 mL collected at 0.25 h, 0.5 h, 1 h, 2 h, 4 h, 8 h, and 24 h, and EDTA-K2 was added. CD1 mice: Approximately 0.03 mL of blood was collected at each time point. The blood was centrifuged for 5 min at 4000 g in a centrifuge at 4° C. to collect plasma. Plasma samples were aliquoted into clean polyethylene microcentrifuge tubes and then stored in a freezer at −75±15° C. before analysis; and • 3) samples were analyzed, and the concentration of the compound in each plasma sample was analyzed with LC-MS/MS. For plasma measurements, pharmacokinetic parameters were calculated using WinNonlin (Phoenix™, version 8.3) or other similar software.

Data set [3] has as its system Human breast squamous carcinoma cells HCC1806. Description: Cell function assay (In-Cell Western, PAR/pADPr after MMS). Type of data set: cell-based. Conditions: read-out: IC50 (nM) in cell function assay. Summed up:
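HCC1806 cells adhered 24 h at 37 °C, 5% CO2, then were pretreated 1 h with compound (30000 nM down to 1 nM, plus 0 nM) or DMSO. MMS was then added at 0.5 mM final for 1 h before In-Cell Western detection of PAR/pADPr.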

Where [4] appears, read: HCC1806, In-Cell Western, MMS treatment.
[5] abbreviates: HCC1806, compound 1 h then 0.5 mM MMS 1 h, PAR/pADPr antibody, In-Cell Western.

For the molecule `CC(C)C(=O)N1CCN(c2cc(S(=O)(=O)NC3(C#N)CC3)cn3c(-c4nnc(C(F)F)s4)ncc23)CC1` [Example 32, N-(1-cyanocyclopropyl)-3-(5-(difluoromethyl)-1,3,4-thiadiazol-2-yl)-8-(4-isobutyrylpiperazin-1-yl)imidazo[1,5-a]pyridine-6-sulfonamide], in data set [1], the “PXR Activation @30 uM (Fold)” value is 2.7 Fold and the “PXR Activation @30 uM (% Ctrl)” value stood at 19 % Ctrl. Further, in data set [2], the “Area under the curve (0-last; hr*ng/mL)” value worked out at 13174 ng·h/mL, the “Peak concentration” value is 5317 ng/mL, the “Time to peak” value was determined as 0.333 h and the bioavailability amounted to 47%. Further, in data set [2], the half-life was 1.31 h and the MRT was 1.92 h. The IC50 in data set [3] (setting [4]) amounted to 10.8 nM. In data set [3] (setting [5]), the IC50 was under 100 nM.
Take `CC(C)C(=O)N1CCN(c2cc(S(=O)(=O)NC3(C#N)CC3)cn3c(-c4nnc(C(F)(F)F)s4)ncc23)CC1` [Example 167, N-(1-cyanocyclopropyl)-8-(4-isobutyrylpiperazin-1-yl)-3-(5-(trifluoromethyl)-1,3,4-thiadiazol-2-yl)imidazo[1,5-a]pyridine-6-sulfonamide]: in data set [1], the “PXR Activation @30 uM (Fold)” value is recorded as 5.0 Fold and the “PXR Activation @30 uM (% Ctrl)” value worked out at 34 % Ctrl. In addition, in data set [2], the “Area under the curve (0-last; hr*ng/mL)” value was 29273 ng·h/mL, the “Peak concentration” value was determined as 4087 ng/mL, the “Time to peak” value came out at 1.67 h and the bioavailability was determined as 85%. In data set [2], the half-life was 2.75 h and the MRT is 4.81 h. Moreover, the half-inhibitory concentration (IC50) in data set [3] (setting [4]) worked out at 6.34 nM. The IC50 in data set [3] (setting [5]) is under 100 nM.
